# Measurements reported in paper PMC8059291 (Antiviral Research, 2021).
# Biological target: SARS-CoV-2 RdRp (Severe acute respiratory syndrome coronavirus 2, UniProt P0DTD1)
# Assay: CoV-Gluc RNA levels by real-time RT-PCR after NA treatment
# Format: cell-based
# Conditions: HEK293T, 1 μM, 24 h
smiles,measurement,value
CCC(CC)COC(=O)[C@H](C)N[P@](=O)(OC[C@H]1O[C@@](C#N)(c2ccc3c(N)ncnn23)[C@H](O)[C@@H]1O)Oc1ccccc1 [Remdesivir],reduction of minus-strand Gluc RNA,60%
